This is an account of results in patent US7482425B2, “Compositions for lipid matrix-assisted chemical ligation” (Amylin Pharmaceuticals, Inc., priority 2002, dated 2009).

For the data set the following is noted: pH 7.5.

Where no end group is shown, it is not given here.

Take “TGRPEWIWLALGTALMGLGTLYFLVKGMGVSDPDAKK [Peptide 1, TGRPEWIWLALGTALMGLGTLYFLVKGMGVSDPDAKK]”: the solubility result was “does not dissolve”.
